In patent US11360080B2, “AhR-ROR-γt complex as a biomarker and therapeutic target for autoimmune disease and IL-17A-associated disease” (NATIONAL HEALTH RESEARCH INSTITUTES, priority 2018, dated 2022):
Where a name gives a salt, the structure may show the parent alone.

Key:
[1] = biological target: T1, GLK (MAP4K3) (Homo sapiens, UniProt Q8IVH8); assay: In vitro kinase assay, recombinant kinase domain, myelin basic protein (MBP) as substrate; type: biochemical
T1 construct: Recombinant proteins of kinase domains of various MAP4Ks were used
Protocol: GLK kinase activity was determined by measuring the rate of ADP production in the in vitro kinase reaction using ADP-GLO™ Kinase Assay kit. For the kinase reaction, recombinant proteins of the GLK kinase-domain (1 μg) were incubated with recombinant proteins of kinase-dead PKCθ (K409W; 0.15 μg) plus ATP (0.1 mM) or myelin basic protein (MBP) plus ATP (0.1 mM) in kinase buffer (40 mM Tris-HCl, pH7.5.20 mM MgCl2, 0.1 mg/ml BSA, 10 mM DTT and 0.1 mM Na3VO4) for 30 min at room temperature. We studied whether GLK inhibitors also suppress cancer cell migration. […] Moreover, both C1 (verteporfin) and C2 (alexidine dihydrochloride) treatments suppressed tumor growth in the xenograft mouse model using TC-1 lung cancer cells (FIG. 15). To study whether GLK deficiency results in a reduction of lung cancer metastasis, we used a metastatic Lewis lung carcinoma (LLC) mouse model by tail vein injection of luciferase-expressing LLC (LLC/luc) cells. We identified two GLK inhibitors (verteporfin and alexidine dihydrochloride)) using cell-based assays and in vitro kinase assays. […] The luciferase activity of LLC/luc cells in the mice was detected by In Vivo Imaging System. […] Inhibition of kinase activity of GLK (MAP4K3) or other MAP4Ks was determined by in vitro kinase assays using myelin basic protein (MBP) as a substrate. […]

[2] = biological target: T2, GLK−IQGAP1 complex (Mus musculus, UniProt Q99JP0); assay: In situ PLA in lung tissues of mice of the LLC/luc metastatic lung cancer model; type: in vivo
T2 construct: from tissue; host or cells: mouse lung tissue (LLC/luc metastatic lung cancer model)
Text: (A) The molecular docking of GLK kinase domain structure with C1 (verteporfin). A three-dimensional structure model depicts the binding of C1 to the predicted GLK kinase domain containing phosphorylated Ser-170. The putative binding affinity was −7.4 kcal/mol. (B) The molecular docking of GLK kinase domain structure with C2 (alexidine dihydrochloride). A three-dimensional structure model depicts the binding of C2 to the predicted GLK kinase domain containing phosphorylated Ser-170. The putative binding affinity was −7.0 kcal/mol. (C) Co-immunoprecipitation (co-IP) of Flag-tagged GLK and GFP-fusion GLK using lysates of HEK293T cells co-transfected with Flag-GLK and GFP-GLK plasmids. Cells were treated with C1 (verteporfin) or C2 (alexidine dihydrochloride). (D) Administration of the GLK inhibitor C1 (0.556 nmole/g) or C2 (0.085 nmole/g) every 3 days for 30 days in the LLC/luc metastatic lung cancer mouse model. (E) The luciferase activity in mice treated with C1 (verteporfin), C2 (alexidine dihydrochloride), or vehicle was detected by IVIS Spectrum. (F) Luminescent intensity of photons emitted from LLC/luc cells in the images in (e) was quantified. (G) Representative immunohistochemistry of H&E in lung tissues from mice treated with C1 (verteporfin), C2, or vehicle. Scale bar, 0.5 cm. (H) In situ PLA assays of the interaction between GLK and IQGAP1 (upper panel) or phosphorylated IQGAP1 Ser-480 (lower panel) in lung tissues from mice treated with C1 (verteporfin), C2 (alexidine dihydrochloride), or vehicle in the LLC/luc metastatic lung cancer mouse model. Original magnification, ×40.
For experiments using human pulmonary tissues, tissue sections were deparafinized, antigen retrieved, and nonspecific-binding blocked, followed by in situ PLA assays using primary antibodies for IQGAP1 (1:4,000, CUSABIO) plus either GLK (1:3,000, mAb clone C3) or phospho-IQGAP1 Ser-480 (1:2,000, Allbio Science). The monoclonal antibody for phosphorylated IQGAP1 Ser-480 was generated by immunization of a mouse with phospho-peptides (human IQGAP1 epitope: ^473NTVWKQL[pS] SSVTGLT^487; SEQ ID NO: 32). The tissue sections were then incubated with species-specific secondary antibodies conjugated with oligonucleotides ([…]), followed by ligation and amplification reactions. The number of PLA signals for GLK−IQGAP1 complex or phosphorylated IQGAP1 per tissue (3.14 mm^2) was counted.

T2 sequence (Q99JP0 whole entry, one chain of several): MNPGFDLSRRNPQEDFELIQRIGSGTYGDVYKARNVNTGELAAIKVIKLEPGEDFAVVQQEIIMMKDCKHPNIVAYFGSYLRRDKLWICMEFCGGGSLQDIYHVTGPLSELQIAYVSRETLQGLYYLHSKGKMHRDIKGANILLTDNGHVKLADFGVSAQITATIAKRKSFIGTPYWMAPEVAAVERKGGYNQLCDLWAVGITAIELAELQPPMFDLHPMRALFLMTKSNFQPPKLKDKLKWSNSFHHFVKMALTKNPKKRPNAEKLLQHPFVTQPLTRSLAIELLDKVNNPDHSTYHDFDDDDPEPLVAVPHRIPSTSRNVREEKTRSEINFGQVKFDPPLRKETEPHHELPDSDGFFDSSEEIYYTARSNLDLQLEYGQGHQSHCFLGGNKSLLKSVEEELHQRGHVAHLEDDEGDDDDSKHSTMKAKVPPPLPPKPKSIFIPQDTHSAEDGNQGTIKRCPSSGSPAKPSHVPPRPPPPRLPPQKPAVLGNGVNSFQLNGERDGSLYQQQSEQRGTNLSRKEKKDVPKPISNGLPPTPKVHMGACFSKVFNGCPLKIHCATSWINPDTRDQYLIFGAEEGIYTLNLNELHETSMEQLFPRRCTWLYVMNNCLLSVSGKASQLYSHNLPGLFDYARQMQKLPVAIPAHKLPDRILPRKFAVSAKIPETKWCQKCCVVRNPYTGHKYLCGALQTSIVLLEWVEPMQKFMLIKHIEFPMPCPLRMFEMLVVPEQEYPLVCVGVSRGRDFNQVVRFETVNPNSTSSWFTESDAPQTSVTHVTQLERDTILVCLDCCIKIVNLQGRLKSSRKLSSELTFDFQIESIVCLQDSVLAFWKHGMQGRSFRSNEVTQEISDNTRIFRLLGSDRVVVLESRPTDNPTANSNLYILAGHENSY
T1 sequence (Q8IVH8 16-273 limits assumed): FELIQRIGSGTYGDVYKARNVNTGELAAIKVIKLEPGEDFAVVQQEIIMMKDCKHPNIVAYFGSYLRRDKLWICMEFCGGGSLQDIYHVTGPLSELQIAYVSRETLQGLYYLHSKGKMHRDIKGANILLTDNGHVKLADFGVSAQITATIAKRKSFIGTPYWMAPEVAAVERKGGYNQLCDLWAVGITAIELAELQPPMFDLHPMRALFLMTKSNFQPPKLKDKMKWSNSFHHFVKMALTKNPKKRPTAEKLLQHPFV

Row | SMILES | IC50 [1] | IQGAP1 (Ser-480) phosphorylation in the lung tissues [2] | interaction between GLK and IQGAP1 in the lung tissues [2]
1 | CCCCC(CC)CNC(=N)NC(=N)NCCCCCCNC(=N)NC(=N)NCC(CC)CCCC (stereo not drawn) [C2, alexidine dihydrochloride] | 10.1 nM | inhibited | inhibited
2 | C=Cc1c(C)c2cc3nc(cc4[nH]c(cc5nc(cc1[nH]2)C(C)=C5CCC(=O)O)c(CCC(=O)OC)c4C)[C@@]1(C)C3=CC=C(C(=O)OC)[C@H]1C(=O)OC [C1, verteporfin] | 1.15 nM | inhibited | inhibited
